# Laboratory results: US8067204B2, “Long-chain chondroitin sugar chain and method for producing the same and method for promoting synthesis of chondroitin” (Seikagaku Corporation, priority 2005, dated 2011)
# Biological target: T1, bacterial cell enzyme (E. coli expressing CH polymerase K4CP) (Escherichia coli, UniProt Q8L0V4)
# T1 construct: His tag (from vector pTrcHis); expressed in transfected cells; host or cells: E. coli transformed with the pTrcHis-K4CP vector and induced with IPTG; The whole-cell pellet was used as the enzyme; TOP10 is named only as the preferred host
# T1 sequence (Q8L0V4 whole entry): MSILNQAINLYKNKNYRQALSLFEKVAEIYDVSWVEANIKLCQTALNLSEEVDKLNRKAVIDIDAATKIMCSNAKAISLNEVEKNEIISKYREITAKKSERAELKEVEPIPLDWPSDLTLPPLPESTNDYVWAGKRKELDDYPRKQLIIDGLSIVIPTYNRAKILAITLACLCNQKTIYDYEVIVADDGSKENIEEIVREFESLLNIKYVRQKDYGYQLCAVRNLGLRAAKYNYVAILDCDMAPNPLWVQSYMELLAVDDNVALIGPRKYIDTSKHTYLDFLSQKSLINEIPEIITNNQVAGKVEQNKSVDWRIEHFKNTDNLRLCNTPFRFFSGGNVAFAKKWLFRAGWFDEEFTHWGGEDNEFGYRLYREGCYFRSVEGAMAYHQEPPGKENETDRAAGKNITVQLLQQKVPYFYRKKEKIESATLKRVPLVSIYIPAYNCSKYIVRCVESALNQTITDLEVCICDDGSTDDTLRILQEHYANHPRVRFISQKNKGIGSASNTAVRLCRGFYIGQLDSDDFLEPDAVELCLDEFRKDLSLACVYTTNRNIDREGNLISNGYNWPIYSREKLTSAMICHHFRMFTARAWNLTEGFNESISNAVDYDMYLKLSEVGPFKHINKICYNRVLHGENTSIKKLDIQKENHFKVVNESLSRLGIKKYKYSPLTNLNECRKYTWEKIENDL
# Assay: Incorporation of [3H]GalNAc into the polymer (CH) fraction by the bacterial cell enzyme
# Format: biochemical, Escherichia coli K4 strain
# Conditions: for influence of surfactant on incorporation of [3H]GalNAc: FIG. 4
# Description: According to the method described in Japanese Patent Application No. 2003-199583, the gene of the CH polymerase (K4CP) enzyme derived from E. coli and an expression vector were prepared. the plasmid pTrcHis (manufactured by Invitrogen Corporation) was used as the expression vector. The expression vector obtained by the method was introduced to E. coli. The E. coli was cultured at 37° C. in an ampicillin-containing LB medium until absorbance of the culture medium reached about 0.6 at a wavelength of 600 nm. β-isopropylthiogalactoside (IPTG), which is an expression induction molecule, was added to the culture medium in such an amount that attains a final concentration of 1 mM, and culture was further performed at 37° C. for 3 hours to induce an enzyme expression. 1 ml of the culture medium was taken and transferred to a centrifugation tube to undergo centrifugation at 10,000 rpm for 1 minute. After the supernatant was discarded, a cell precipitate was used a bacterial cell enzyme. Further, the cell precipitate can maintain the enzymatic activity at least for 1 year by storing at −80° C.
# To the bacterial cell enzyme obtained in Example 1, 50 mM of Tris-HCl (pH of 7.2) buffer solution containing 20 mM of MnCl2, 150 mM of NaCl, 0.1 nmol of CH6, 3 nmol of UDP-GalNAc, 0.2 μCi of UDP-[^3H] GalNAc, and 3 nmol of UDP-GlcUA, and a surfactant (Nymeen S-215; manufactured by NOF CORPORATION) at a final concentration of 0, 0.1, 0.2, 0.4, 1.0, or 2.0% was added and suspended. Each of the suspensions was shaken at 30° C. for 15 hours. After the reaction, each of the suspensions was heat-treated for 10 minutes in boiling water, and then centrifuged at 15,000 rpm for 5 minutes to remove a precipitate. Each of the supernatants was subjected to gel filtration using Superdex peptide HR 10/30 column (manufactured by Amersham Biosciences Co., Ltd.). The sugar chains in each of the eluted solutions were detected based on the absorbance at 225 nm.
# An eluted fraction which corresponds to the absorption peak residing in a polymer region was obtained, and an incorporation of [^3H] GalNAc was detected. The incorporation was shown by the ratio (%) of the incorporated radioactivity with respect to the total radioactivity as 100%.
# The same test as Example 3 was performed using various kinds of surfactants each having a final concentration of 0.4% to examine how various kinds of surfactants influence on the incorporation of [^3H] GalNAc. As an enzyme, the bacterial cell enzyme produced in Example 1 was used. Further, the surfactants used are described below.
# The same test as Example 3 was performed using various kinds of organic solvents each having a final concentration of 1% to examine the influence of the various kinds of organic solvents on the incorporation of [^3H] GalNAc. As an enzyme, the bacterial cell enzyme prepared in Example 1 was used. Further, the organic solvents used are described below.
# The incorporation was shown by the ratio (%) of the incorporated radioactivity with respect to the total radioactivity of [^3H] GalNAc used as 100%. It should be noted that the term “without organic solvent” in FIG. 5 means a case where the bacterial cell enzyme was reacted in the absence of organic solvents.
# Besides, in order to examine the concentration dependency in the case of using chloroform as an organic solvent, the same test as Example 3 was performed by setting chloroform concentration in the enzyme reaction solution to 0, 0.5, 1.0, 2.0, 5.0, or 10.0%, thereby the amount of incorporation of [^3H] GalNAc in the polymer fraction was examined.
# [1] = surfactant final concentration 0.4%
compound,measurement,setting,value
CCCCCCCCCS[C@@H]1O[C@H](CO)[C@@H](O[C@H]2O[C@H](CO)[C@@H](O)[C@H](O)[C@H]2O)[C@H](O)[C@H]1O [n-nonyl-β-D-thiomaltopyranoside],influence of surfactant on incorporation of [3H]GalNAc,[1],particularly efficient incorporation
polyoxyethylene octadecyl amine [Nymeen S-215],incorporation of [3H]GalNAc into the polymer fraction (ratio of incorporated to total radioactivity),"surfactant concentration 0.4% or more at the time of the enzyme reaction, 30° C., 15 hours, FIG. 1",about 37%
same,incorporation of used [3H]GalNAc into the polymer fraction,"surfactant final concentration 0.4%, Example 4, reconfirmation",about 37%
Sucrose monocaprate,influence of surfactant on incorporation of [3H]GalNAc,[1],particularly efficient incorporation
Sucrose monolaurate,influence of surfactant on incorporation of [3H]GalNAc,[1],particularly efficient incorporation
"ClC(Cl)Cl [chloroform, Chloroform]","incorporation of [3H]GalNAc in the polymer fraction, dependence on chloroform concentration","chloroform concentration more than 0% to less than 5% (tested 0, 0.5, 1.0, 2.0, 5.0, 10.0%), FIG. 6",promoted
same,influence of organic solvent on incorporation of [3H]GalNAc,"organic solvent final concentration 1%, FIG. 5",promoted the incorporation
